Experimental data reported in the NIST ThermoML archive (doi:10.1021/je201283n).

Settings: Liquid, isochoric method

CCCCn1cc[n+](C)c1.N#CN=C=[N-] [1-butyl-3-methylimidazolium dicyanamide]
Settings	mass density [kg/m3]
237.2 K, 1327.9 kPa	1099.45
242.14 K, 9986.9 kPa	1099.05
247.77 K, 20189 kPa	1098.57
248.09 K, 1170.5 kPa	1092.06
253.33 K, 10197 kPa	1091.63
253.33 K, 29961 kPa	1098.11
259.12 K, 20009 kPa	1091.16
259.17 K, 39931 kPa	1097.63
259.68 K, 1030 kPa	1084.28
265.12 K, 50114 kPa	1097.14
265.24 K, 10141 kPa	1083.84
265.25 K, 30347 kPa	1090.66
270.55 K, 18709 kPa	1083.42
271.07 K, 59859 kPa	1096.65
271.13 K, 39925 kPa	1090.18
273.28 K, 2767.5 kPa	1075.98
277.42 K, 50079 kPa	1089.67
277.92 K, 9955.1 kPa	1075.61
277.96 K, 30503 kPa	1082.82
277.98 K, 10008 kPa	1075.61
283.67 K, 59955 kPa	1089.17
284.14 K, 40138 kPa	1082.33
284.15 K, 1038.8 kPa	1068.31
284.23 K, 1148.3 kPa	1068.31
284.47 K, 20074 kPa	1075.1
291.05 K, 29671 kPa	1074.21
291.05 K, 30032 kPa	1074.57
291.06 K, 11299 kPa	1067.78
291.44 K, 51356 kPa	1081.75
296.97 K, 19796 kPa	1067.32
297.26 K, 60158 kPa	1081.29
298.18 K, 40270 kPa	1073.65
298.18 K, 40659 kPa	1074.02
299.21 K, 3719.1 kPa	1059.78
303.97 K, 10315 kPa	1059.42
303.97 K, 30176 kPa	1066.78
304.81 K, 50325 kPa	1073.5
310.98 K, 40117 kPa	1066.24
311.01 K, 20033 kPa	1058.89
311.34 K, 59700 kPa	1072.99
311.37 K, 676.6 kPa	1050.98
317.98 K, 49917 kPa	1065.7
318.27 K, 9911 kPa	1050.46
318.27 K, 30183 kPa	1058.34
325.32 K, 60007 kPa	1065.14
325.56 K, 39796 kPa	1057.8
326 K, 19921 kPa	1049.89
326.53 K, 876.3 kPa	1041.71
333.12 K, 50157 kPa	1057.22
333.67 K, 9918.1 kPa	1041.19
333.67 K, 30169 kPa	1049.32
340.8 K, 60149 kPa	1056.64
341.31 K, 39980 kPa	1048.75
341.77 K, 20126 kPa	1040.59
342.41 K, 781.5 kPa	1031.94
349.32 K, 50089 kPa	1048.15
349.8 K, 9629.2 kPa	1031.41
349.8 K, 30031 kPa	1040.31
